Molecular target: T1, Pmar-Lig (Prochlorococcus marinus, UniProt A0A0A2ACP7)
T1 construct: gene EU96_0746; codon-optimised synthetic gene in pDEST17; tag removed; three domains (DB, AD, OB); 432 residues modelled in wild-type crystals
Assay: X-ray crystal structure, […] A
Format: binding
Conditions: post-step 3 complex with sealed DNA product; partial occupancy (adenine nucleobase 0.75, phosphate 0.5); some residual covalent DNA-adenylate; pH 6.5 crystallisation

T1 sequence (A0A0A2ACP7 entry or part of it): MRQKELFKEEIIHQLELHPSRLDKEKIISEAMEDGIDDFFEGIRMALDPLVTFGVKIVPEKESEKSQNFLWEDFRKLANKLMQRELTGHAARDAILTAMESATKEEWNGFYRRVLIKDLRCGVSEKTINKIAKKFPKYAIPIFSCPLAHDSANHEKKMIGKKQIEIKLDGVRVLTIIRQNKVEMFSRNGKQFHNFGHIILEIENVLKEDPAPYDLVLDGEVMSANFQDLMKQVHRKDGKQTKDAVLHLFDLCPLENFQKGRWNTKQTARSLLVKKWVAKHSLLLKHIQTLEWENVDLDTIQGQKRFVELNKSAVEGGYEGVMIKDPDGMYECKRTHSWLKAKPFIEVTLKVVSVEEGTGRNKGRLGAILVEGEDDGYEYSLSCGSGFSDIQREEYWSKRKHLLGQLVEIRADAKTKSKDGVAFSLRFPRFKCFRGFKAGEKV

Nc1ncnc2c1ncn2[C@@H]1O[C@H](COP(=O)(O)O)[C@@H](O)[C@H]1O [AMP]
X-ray crystal structure, 1.99 A: with the DNA product retained in the active site, as well as residual AMP

— publication PMC6698739, “Structural intermediates of a DNA–ligase complex illuminate the role of the catalytic metal ion and mechanism of phosphodiester bond formation” (Nucleic Acids Research, 2019)
